Laboratory results: patent US7189856B2 (priority 2001, dated 2007)
Counter-ions that a name gives are not always drawn.

Target: T1, human SSTR2 receptors (Homo sapiens, UniProt P30874)
T1 construct: expressed in transfected cells; host or cells: CHO-K1 cells
Test: inhibition of [125I] Somatostatin binding to human SSTR2 receptors expressed in CHO-K1 cells
Procedure: FIG. 1 illustrates the logarithmic concentration-response curves for inhibition of [^125I] […] Test compounds were tested in duplicate at all concentrations. The average percent inhibition of duplicate was used for plotting the displacement curves, fitted by non-linear regression.
FIG. 2 illustrates the logarithmic concentration-response curves for inhibition of [^125I] […] Test compounds were tested in duplicate at all concentrations. The average percent inhibition of duplicate was used for plotting the displacement curves, fitted by non-linear regression.

T1 sequence (P30874 whole entry): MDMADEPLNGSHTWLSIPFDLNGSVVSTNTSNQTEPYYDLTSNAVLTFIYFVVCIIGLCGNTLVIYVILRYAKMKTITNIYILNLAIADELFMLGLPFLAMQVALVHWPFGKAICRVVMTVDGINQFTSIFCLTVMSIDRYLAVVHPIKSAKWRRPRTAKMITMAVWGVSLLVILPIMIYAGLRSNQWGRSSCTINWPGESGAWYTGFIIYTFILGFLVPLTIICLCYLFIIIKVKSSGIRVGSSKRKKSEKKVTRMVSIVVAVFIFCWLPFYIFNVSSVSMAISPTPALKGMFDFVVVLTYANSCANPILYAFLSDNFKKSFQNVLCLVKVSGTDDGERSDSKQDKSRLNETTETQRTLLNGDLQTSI

IC50 [nM]	SMILES
0.29 ± 0.0395	CN(C)C(=O)c1cc(S(=O)(=O)N2C(=O)N(CC3CCC[C@@H](CN)C3)C(=O)[C@@H]2Cc2c[nH]c3ccccc23)ccc1Oc1ccc(O)c(Cl)c1 (single isomer, unassigned) [Example 15a HCl salt]
1.3 ± 0.183	CN(C)C(=O)c1cc(S(=O)(=O)N2C(=O)N(C[C@@H]3CCC[C@H](CN)C3)C(=O)[C@@H]2Cc2c[nH]c3ccccc23)ccc1Oc1ccc(O)c(Cl)c1 (single isomer, unassigned) [Example 15b HCl salt]
